This data set is described as follows: Pharmacokinetics of the seven cocktail probe drugs in blank control rats (Group C). The settings on record: for AUC(0-inf) / AUC(0-t) / CL/F / Cmax / half-life: rat, in vivo, po; for t1/2 z: probe drug in rat plasma, cocktail by gavage, Group C (0.3% CMC-Na 14 d), n = 8. As for the experimental part:
The effect of the Zhicaowu–Hezi combination on CYP450 enzymes in rats was evaluated by examining the pharmacokinetics of theophylline (CYP1a2), metoprolol (CYP2d2), bupropion (CYP2b1), omeprazole (CYP2c13), chlorzoxazone (CYP2e1), testosterone (CYP3a1), and diclofenac (CYP2c11).
The collected blood was placed in sodium heparin-treated centrifuge tubes and centrifuged at 4°C for 10 min at 3,000 RPM. […] After 10 min of sedimentation, the supernatant was extracted through a 0.22-μm microporous membrane, 20 μL of which was injected into HPLC. The pharmacokinetic parameters of each probe drug were calculated using the non-atrial compartment model in Drug and Statistics software (DAS, 3.0; Shanghai, China).

Regarding `CC(NC(C)(C)C)C(=O)c1cccc(Cl)c1` (stereo not drawn) [bupropion], the AUC(0-inf) turned out to be 16300 ± 1410 ng·h/mL, the AUC(0-t) came out at 15800 ± 1320 ng·h/mL, the CL/F was 7.16 mL/min/kg and the Cmax is 1300 ± 93 ng/mL. Further, the half-life is 18.7 ± 0.948 h.
For `O=C(O)Cc1ccccc1Nc1c(Cl)cccc1Cl` [diclofenac], in that order: 5470 ± 358 ng·h/mL, 5230 ± 465 ng·h/mL, 42.3 mL/min/kg, 1080 ± 115 ng/mL and 4.98 ± 0.557 h.
For `COCCc1ccc(OCC(O)CNC(C)C)cc1` (stereo not drawn) [metoprolol], in that order: 10100 ± 1480 ng·h/mL, 9600 ± 988 ng·h/mL, 26.3 mL/min/kg, 891 ± 114 ng/mL and 7.95 ± 1.15 h.
Take `COc1ccc2[nH]c([S+]([O-])Cc3ncc(C)c(OC)c3C)nc2c1` (stereo not drawn) [omeprazole]: the t1/2 z was determined as 4.689 ± 0.467 h, the AUC(0-inf) stood at 3900 ± 394 ng·h/mL, the AUC(0-t) was determined as 3840 ± 372 ng·h/mL and the CL/F was 43.4 mL/min/kg. Moreover, the maximum concentration (Cmax) worked out at 995 ± 78 ng/mL.
For `C[C@]12CC[C@H]3[C@@H](CCC4=CC(=O)CC[C@@]43C)[C@@H]1CC[C@@H]2O` [testosterone], the total exposure AUC(0-inf) turned out to be 1410 ± 69 ng·h/mL, the AUC(0-t) was determined as 1210 ± 81 ng·h/mL, the CL/F was 66.8 mL/min/kg and the Cmax came out at 295 ± 54 ng/mL. Further, the half-life is 11.1 ± 1.11 h.
Regarding `Cn1c(=O)c2[nH]cnc2n(C)c1=O` [theophylline], the t1/2 z is on record as 5.273 ± 0.526 h, the AUC(0-inf) was 22500 ± 1440 ng·h/mL, the AUC(0-t) was 21900 ± 1250 ng·h/mL and the CL/F was 7.75 mL/min/kg. The Cmax was found to be 1810 ± 94 ng/mL.

In general, AUC(0-inf) refers to total exposure, with the tail of the curve extrapolated. What is called AUC(0-t) is the area under the concentration-time curve up to a stated or last time point. As usually defined, the CL/F is clearance divided by bioavailability, as obtained after extravascular dosing. As a reminder, the Cmax is the maximum level reached in the sampled fluid or tissue. The term half-life denotes the time in which the quantity being followed falls by half.

The values are drawn from PMC12301304 (Frontiers in Pharmacology, 2025).
